Measured values: publication PMC6571560, “Aldose Reductase, Protein Glycation Inhibitory and Antioxidant of Peruvian Medicinal Plants: The Case of Tanacetum parthenium L. and Its Constituents” (Molecules, 2019)

Assays:
[1] = tested on: advanced glycation end products (AGEs) formation; assay: Bovine serum albumin-methylglyoxal assay for AGEs formation; format: biochemical; conditions: for IC50: table head prints no unit, μM
Method: BSA (50 mg/mL) was incubated with methylglyoxal (100 mM) in sodium phosphate buffer (0.1 M, pH 7.4) in the presence of various concentrations of the compounds (including a control) at 37 °C for 24 h. Then, the fluorescence intensity was measured at an excitation wavelength of 355 nm and an emission wavelength of 460 nm with a luminescence spectrometer (LS50B, Perkin–Elmer Ltd., Buckinghamshire, UK). […] All reagents and samples were sterilized by filtration through […] membrane filters.

[2] = target: T1, rat lens aldose reductase (RLAR) (Rattus norvegicus, UniProt P07943); assay: Rat lens aldose reductase (RLAR) inhibition, NADPH absorbance decrease at 340 nm; format: biochemical; conditions: for IC50: mean ± SEM, three independent experiments in duplicate
T1 construct: The supernatant was collected and used as the RLAR; from tissue; host or cells: lenses of Sprague-Dawley rats (homogenate supernatant)
Method: Crude RLAR was prepared as follows: lenses were removed from Sprague-Dawley rats (Weighing 250–280 g) and frozen at −70 °C until use. Non-cataractous transparent lenses were pooled, and a homogenate was prepared in 0.1 M phosphate-buffered saline (pH 6.2). The RLAR homogenate was then centrifuged at 10,000× gfor 20 min at 4 °C in a refrigerated centrifuge. The supernatant was collected and used as the RLAR [35]. This experiment was approved by the University of Hallym Animal Care and Use Committee (Registration Number: Hallym R2016-60). All of the procedures were conducted in accordance with the ‘Guide for Care and Use of Laboratory Animals’, published by the National Institutes of Health.
A total of 531 μL of 0.1 M potassium buffer (pH 7.0), 90 μL of NADPH solution (1.6 mM in potassium buffer), 90 μL of RLAR homogenate (6.5 U/mg), 90 μL of ammonium sulfate solution (4 M in potassium buffer), and 90 μL of DL-glyceraldehyde (25 mM in potassium buffer) were mixed with 9 μL of different concentrations of samples (1–0.1 mg/mL in dimethylsulfoxide (DMSO), Less than 1% in total mixture) in a cuvette, and the activity of RLAR was assessed spectrophotometrically by measuring the decrease in NADPH absorbance at 340 nm for 3 min using a spectrophotometer (SECOMAM, Ales Cedex, France).

[3] = target: T2, human recombinant aldose reductase (HRAR) (Homo sapiens, UniProt P15121); assay: Human recombinant aldose reductase ultrafiltration HPLC assay; format: binding; conditions: peak in TP extract (0.1 mg/mL) incubated with 3.9 μM HRAR
T2 construct: purchased Wako Pure Chemical Industries (Osaka, Japan)
Method: The inhibitory compounds of HRAR from TP were profiled by an AR ultrafiltration assay. Specifically, TP (at a final concentration of 0.1 mg/mL) was incubated with 0.6 M ammonium sulfate and 3.9 μM HRAR in a total volume of 300 μL at 37 °C for 30 min. Then, the incubated mixture was filtered by using a Microcon YM-10 centrifugal filter unit by centrifugation at 5167× g for 30 min at room temperature. The filtrate was subsequently analyzed by using the methods mentioned in the HPLC analysis section. A sample incubated without HRAR was used as a control. The relative binding affinity of the inhibitors from TP toward HRAR was defined as the “binding degree” (BD), which can be calculated as follows: BD (%) = (Aa − Ab)/Aa × 100, in which Aa and Ab are the peak areas of a compound without and with HRAR in the HPLC chromatograms, respectively.

DPPH-HPLC assay = conditions: peak in TP extract after reaction with DPPH, HPLC 254 nm
Method: The antioxidant compounds from TP were profiled with a DPPH-HPLC assay. TP (90 µL; 10.0 mg/mL) was mixed with 540 µL of DPPH solution (0.32 mM), and the mixed solution was then incubated at 37 °C for 20 min in a dark room. The solution was then filtered through a 0.45 µm membrane filter and then subjected to HPLC analysis. The HPLC conditions were the same as those described in the HPLC analysis section.

[4] = tested on: sorbitol accumulation in rat lens; assay: Lens culture and sorbitol accumulation in rat lens; format: cell-based; conditions: compound 5 μg/mL, mean ± SD (n = 3); for Sorbitol Content (mg)/lens Wet Weight (g): rat lens cultured 6 d in 30 mM glucose; for inhibition at 5 µg/mL: rat lens cultured in 30 mM glucose
Method: Lenses isolated from 10-week-old Sprague-Dawley rats were cultured for 6 d in TC-199 medium that contained 15% fetal bovine serum, 100 units/mL penicillin, and 0.1 mg/mL streptomycin, under sterile conditions and an atmosphere of 5% CO2 and 95% air at 37 °C. The lenses were divided into three groups and cultured in medium containing 30 mM glucose and active compounds. Each lens was placed in a well containing 2.0 mL of medium. Sorbitol was determined by HPLC after derivatization by reaction with benzoic acid to a form of a fluorescent compound [37].

[5] = DPPH radical scavenging capacity
Method: The DPPH radical scavenging capacity assay method of Yin et al. was used. DPPH (0.32 mM) was diluted with MeOH, and this solution (180 µL) was mixed with 30 µL of the sample at each concentration. After 20 min of incubation in a darkroom, the absorbance at 570 nm was recorded on a microplate reader (EL800 Universal Microplate reader, Bio-Tek Instruments, Winooski, VT, USA). DPPH radical scavenging activity was expressed as the percentage inhibition (%) of DPPH in the aforementioned assay system and was calculated as (1 – B/A) × 100, in which A and B are the activities of DPPH without and with the test material, respectively.

Compound	IC50 [2] [µM]	HRAR binding degree (%) [3] [%]	IC50 [1] [µM]	AGEs Inhibition (%) ([1]; 20 μg/mL)	DPPH PAR (%), peak area reduction (DPPH-HPLC assay) [%]	Sorbitol Content (mg)/lens Wet Weight (g) [4] [mg/g]	inhibition at 5 µg/mL [4] [%]	also measured
N=C(N)NN [Aminoguanidine, aminoguanidine, reference compound]				20.75				AGEs Inhibition (%) ([1]; 100 μg/mL): 39.94%; AGEs Inhibition (%) ([1]; 200 μg/mL): 75.32%; AGEs IC50 ([1]; mean ± SEM): 121.96 ± 5.10 µg/mL
COc1cc(/C=C/C(=O)O)ccc1O [Compound 1, ferulic acid]	1.11 to 3.2	27.08			23.53	0.29 ± 0.03	80.3 ± 2.38	
O=c1cc(-c2ccc(O)cc2)oc2cc(O)cc(O)c12 [Compound 2, apigenin]	1.11 to 3.2	15.00	> 55	8.14	11.28	0.19 ± 0.06	87.1 ± 2.37	
O=C1O[C@H]([C@@H](O)CO)C(O)=C1O [L-ascorbic acid]								DPPH Inhibition (%) ([5]; 3 μg/mL): 33.71%; DPPH Inhibition (%) ([5]; 7.5 μg/mL): 58.34%; DPPH Inhibition (%) ([5]; 15 μg/mL): 97.23%; DPPH IC50 ([5]; mean ± SEM): 6.02 ± 0.37 µg/mL
O=c1c(O)c(-c2ccc(O)c(O)c2)oc2cc(O)cc(O)c12 [Quercetin, quercetin, reference compound]						0.21 ± 0.02	85.7 ± 5.71	inhibition at 0.5 µg/mL ([2]; 0.5 μg/mL): 23.6%; inhibition at 1 µg/mL ([2]; 1 μg/mL): 44.8%; inhibition at 10 µg/mL ([2]; 10 μg/mL): 81.3%

Further lines, with some results ahead:

IC50 [2] [µM]	HRAR binding degree (%) [3] [%]	IC50 [1] [µM]	Compound	AGEs Inhibition (%) ([1]; 20 μg/mL)	DPPH PAR (%), peak area reduction (DPPH-HPLC assay) [%]	Sorbitol Content (mg)/lens Wet Weight (g) [4] [mg/g]	inhibition at 5 µg/mL [4] [%]	also measured
1.11 to 3.2	26.58		O=c1cc(-c2ccc(O)c(O)c2)oc2cc(O[C@@H]3O[C@H](CO)[C@@H](O)[C@H](O)[C@H]3O)cc(O)c12 [Compound 3, luteolin-7-O-glucoside]		16.85	0.07 ± 0.01	95.2 ± 5.97	AGEs inhibition potency relative to aminoguanidine (times higher) ([1]; ratio of IC50 values): 32.23 times
	38.02		O=c1cc(-c2ccc(O)c(O)c2)oc2cc(O)cc(O)c12 [Compound 4, luteolin]		29.36	0.12 ± 0.02	91.8 ± 5.23	
1.11 to 3.2	25.54	> 55	COc1cc2oc(-c3ccc(O)c(O)c3)c(OC)c(=O)c2c(O)c1OC [Compound 5, chrysosplenol]	5.38	7.19	0.26 ± 0.03	82.3 ± 2.39	IC50 ([5]; mean ± SEM, listed as Chrysosplenol (5)): > 250 µM
1.11 to 3.2	24.29	> 55	O=c1c(O)c(-c2ccc(O)cc2)oc2cc(O)cc(O)c12 [Compound 6, kaempferol]		13.97	0.03 ± 0.00	98 ± 6.31	
> 28	0	> 55	COc1ccc(-c2oc3cc(O)c(OC)c(O)c3c(=O)c2OC)cc1 [Compound 7, santin]	13.15	0			IC50 ([5]; mean ± SEM): > 208 µM
